Assay [1] in a line: NIH-3T3 fibroblast cytotoxicity, dose response, cytotoxicity control, cell-based, fluorescence, Alamar Blue, secondary assay (AID 2327).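 Also: NIH-3T3 mouse fibroblasts cultured with fluconazole at 8 µg/mL.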 Type of assay: functional. In general terms: Alamar Blue is a resazurin reagent that responds to reducing activity.
Assay [2] in a line: fluconazole-exposed Candida albicans growth modulators – fluorescence, retest, confirmation (AID 2467). The format is functional, cell-based.
A further assay concerns the target Beta-galactosidase (Escherichia coli, UniProt Q8VNN2). Kind of assay: detection-enzyme interference by beta-gal modulators – biochemical, E. coli enzyme, set 3, artefact control for CCR6 antagonist project, dose response (AID 504712). Type of assay: functional.
Another assay addresses T1, Hexokinase HKDC1 (Homo sapiens, UniProt Q2TB90).
T1 sequence (Q2TB90 whole entry): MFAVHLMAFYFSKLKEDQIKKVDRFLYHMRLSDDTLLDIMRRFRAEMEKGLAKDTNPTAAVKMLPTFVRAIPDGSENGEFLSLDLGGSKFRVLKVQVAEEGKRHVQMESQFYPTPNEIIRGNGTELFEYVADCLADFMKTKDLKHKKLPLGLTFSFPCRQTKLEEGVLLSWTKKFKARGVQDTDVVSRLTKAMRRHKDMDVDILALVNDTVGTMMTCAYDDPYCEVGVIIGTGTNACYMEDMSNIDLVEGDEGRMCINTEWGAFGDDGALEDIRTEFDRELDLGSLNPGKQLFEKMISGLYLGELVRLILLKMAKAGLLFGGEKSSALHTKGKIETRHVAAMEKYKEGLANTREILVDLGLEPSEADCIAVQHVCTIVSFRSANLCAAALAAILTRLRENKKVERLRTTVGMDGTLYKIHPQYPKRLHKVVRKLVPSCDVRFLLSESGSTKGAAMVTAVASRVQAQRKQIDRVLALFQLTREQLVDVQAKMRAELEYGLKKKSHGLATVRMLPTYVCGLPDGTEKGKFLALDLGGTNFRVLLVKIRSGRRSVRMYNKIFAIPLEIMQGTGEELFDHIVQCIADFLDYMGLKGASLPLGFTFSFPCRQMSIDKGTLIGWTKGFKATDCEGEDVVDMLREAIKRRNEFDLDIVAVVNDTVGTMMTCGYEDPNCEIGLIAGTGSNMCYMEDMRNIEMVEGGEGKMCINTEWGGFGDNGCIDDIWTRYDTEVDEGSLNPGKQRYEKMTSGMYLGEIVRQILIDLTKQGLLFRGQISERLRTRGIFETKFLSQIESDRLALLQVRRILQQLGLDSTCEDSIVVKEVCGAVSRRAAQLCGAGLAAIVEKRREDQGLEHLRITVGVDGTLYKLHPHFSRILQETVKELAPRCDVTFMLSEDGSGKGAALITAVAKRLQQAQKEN
Kind of assay: inhibition of HKDC1 glucose phosphorylation – biochemical, W721R variant, dose response (AID 504729). The format is functional.

For assay [3], the target named is Heat shock protein HSP 90-alpha (Homo sapiens, UniProt P07900). Type of assay: functional, organism-based.
For another assay, the system named is Streptococcus. The assay is described as follows: GAS UMAA2166 growth inhibition – luminescence, BacTiterGlo, counter-screen for streptokinase expression inhibitor project, dose response (AID 1915).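 Also: potency for reduction of bacterial viability or growth.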 The format is functional, organism-based. Background: Counterscreens check selectivity or assay interference.
Assay [4] deals with Streptococcus sp. 'group A'. The assay is described as follows: Streptococcus pyogenes SK(-)GAS viability under kanamycin – luminescence, BacTiterGlo, confirmation, counter-screen for streptokinase expression inhibitor project, dose response (AID 1900). Type of assay: functional, organism-based.
For assay [5], the target named is T2, SUMO-activating enzyme (Homo sapiens, UniProt Q9UBT2). The assay is described as follows: blockers of UBC9-mediated SUMO conjugation – biochemical, AlphaScreen, SUMOylation inhibitor project, confirmation (AID 2018). The format is functional. A general note: Alpha assays give light when donor and acceptor beads are brought close together.
Assay [6] has as its target T2, SUMO-activating enzyme. The assay is described as follows: blockers of SAE1/SAE2–UBC9 SUMO transfer – biochemical, HTRF, uHTS, primary screen (AID 2006). The format is protein-complex assay.
A further assay has as its system Vero. The assay is described as follows: viability of Vero cells under compound – cytotoxicity control for flavivirus capping enzyme inhibitors (AID 588742). The format is functional. To be noted: Chlorocebus sabaeus.
The target of a further assay is Genome polyprotein (dengue virus type 2, UniProt P29990). Kind of assay: flavivirus cap methylation enzyme inhibition – biochemical, confirmation dose response, primary screen (AID 588689). Type of assay: functional.
Assay [7] has as its target Induced myeloid leukemia cell differentiation protein Mcl-1 (Homo sapiens, UniProt Q07820). Type of assay: functional.
Assay [8] addresses DNA dC->dU-editing enzyme APOBEC-3G (Homo sapiens, UniProt Q9HC16). Kind of assay: Dose Response confirmation of small molecule APOBEC3G DNA Deaminase Inhibitors via a fluorescence-based single-stranded DNA deaminase assay. [Related pubchem assays (depositor defined):AID493012, AID493028]. Type of assay: functional.
For the next assay, the target named is Large T antigen (Simian virus 40, UniProt P03070). Type of assay: functional, Betapolyomavirus macacae.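 Also: Confirmatory-stage PubChem screen for compounds that inhibit SV40 T antigen.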

The source made the active and inactive calls.

The EC50 is the midpoint of the concentration-response curve. The term IC50 denotes the point on the concentration scale where inhibition reaches its midpoint. The AC50 is the concentration giving half of the maximal activity seen. The term CC50 denotes the concentration that lowers cell viability or growth by half.

T2 sequence (Q9UBE0 whole entry): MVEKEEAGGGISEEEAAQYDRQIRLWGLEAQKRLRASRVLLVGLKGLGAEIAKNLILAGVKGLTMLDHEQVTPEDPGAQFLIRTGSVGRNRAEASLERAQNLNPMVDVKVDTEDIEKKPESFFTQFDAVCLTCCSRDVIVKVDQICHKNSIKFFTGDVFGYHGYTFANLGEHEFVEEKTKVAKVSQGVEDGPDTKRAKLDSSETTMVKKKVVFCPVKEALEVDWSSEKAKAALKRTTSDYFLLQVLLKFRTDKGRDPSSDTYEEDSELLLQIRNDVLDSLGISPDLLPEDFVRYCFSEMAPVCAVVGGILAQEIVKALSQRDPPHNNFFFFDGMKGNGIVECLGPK
T2 sequence (Q9UBT2 whole entry): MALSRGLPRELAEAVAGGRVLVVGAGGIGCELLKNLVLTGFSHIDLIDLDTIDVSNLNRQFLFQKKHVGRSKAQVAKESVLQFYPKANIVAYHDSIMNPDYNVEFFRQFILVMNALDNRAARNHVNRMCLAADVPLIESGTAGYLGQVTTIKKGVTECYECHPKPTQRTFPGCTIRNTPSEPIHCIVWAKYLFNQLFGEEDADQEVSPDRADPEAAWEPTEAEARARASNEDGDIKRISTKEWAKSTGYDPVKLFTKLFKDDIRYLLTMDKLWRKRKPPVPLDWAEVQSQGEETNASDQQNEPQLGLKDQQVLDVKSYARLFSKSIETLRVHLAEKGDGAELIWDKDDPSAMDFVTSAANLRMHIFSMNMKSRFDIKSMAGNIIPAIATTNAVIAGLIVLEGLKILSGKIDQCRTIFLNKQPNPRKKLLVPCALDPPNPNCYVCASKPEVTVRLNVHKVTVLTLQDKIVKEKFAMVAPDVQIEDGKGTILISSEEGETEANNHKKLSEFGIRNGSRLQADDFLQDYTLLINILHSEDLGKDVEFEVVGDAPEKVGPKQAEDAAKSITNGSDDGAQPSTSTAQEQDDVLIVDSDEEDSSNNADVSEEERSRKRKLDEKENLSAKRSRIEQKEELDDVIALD
Sequence of Beta-galactosidase (Q8VNN2 whole entry): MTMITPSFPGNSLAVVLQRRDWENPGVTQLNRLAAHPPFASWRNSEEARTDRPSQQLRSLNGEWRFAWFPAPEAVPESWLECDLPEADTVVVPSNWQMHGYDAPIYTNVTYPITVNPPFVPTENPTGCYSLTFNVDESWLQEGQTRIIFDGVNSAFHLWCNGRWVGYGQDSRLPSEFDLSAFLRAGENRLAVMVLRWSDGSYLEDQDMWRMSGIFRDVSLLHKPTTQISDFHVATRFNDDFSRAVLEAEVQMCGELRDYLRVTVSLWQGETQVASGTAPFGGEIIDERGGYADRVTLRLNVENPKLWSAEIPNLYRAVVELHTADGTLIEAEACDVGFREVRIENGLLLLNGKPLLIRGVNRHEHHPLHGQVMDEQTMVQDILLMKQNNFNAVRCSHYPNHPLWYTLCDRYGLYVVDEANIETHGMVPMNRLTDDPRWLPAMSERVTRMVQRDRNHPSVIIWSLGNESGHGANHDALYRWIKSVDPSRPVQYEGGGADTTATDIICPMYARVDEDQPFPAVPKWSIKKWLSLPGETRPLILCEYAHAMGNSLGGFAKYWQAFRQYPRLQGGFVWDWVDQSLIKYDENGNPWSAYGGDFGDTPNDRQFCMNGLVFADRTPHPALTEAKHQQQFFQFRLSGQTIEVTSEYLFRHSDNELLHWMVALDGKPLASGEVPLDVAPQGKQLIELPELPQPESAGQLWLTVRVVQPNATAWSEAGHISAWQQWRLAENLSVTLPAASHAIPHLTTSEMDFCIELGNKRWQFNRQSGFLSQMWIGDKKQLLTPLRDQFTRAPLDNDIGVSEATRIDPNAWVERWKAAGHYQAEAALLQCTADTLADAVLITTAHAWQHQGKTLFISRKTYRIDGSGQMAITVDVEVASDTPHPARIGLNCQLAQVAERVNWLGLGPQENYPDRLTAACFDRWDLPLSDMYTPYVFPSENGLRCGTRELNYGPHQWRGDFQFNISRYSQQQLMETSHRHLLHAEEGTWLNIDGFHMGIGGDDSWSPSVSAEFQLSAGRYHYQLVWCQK
Sequence of DNA dC->dU-editing enzyme APOBEC-3G (Q9HC16 whole entry): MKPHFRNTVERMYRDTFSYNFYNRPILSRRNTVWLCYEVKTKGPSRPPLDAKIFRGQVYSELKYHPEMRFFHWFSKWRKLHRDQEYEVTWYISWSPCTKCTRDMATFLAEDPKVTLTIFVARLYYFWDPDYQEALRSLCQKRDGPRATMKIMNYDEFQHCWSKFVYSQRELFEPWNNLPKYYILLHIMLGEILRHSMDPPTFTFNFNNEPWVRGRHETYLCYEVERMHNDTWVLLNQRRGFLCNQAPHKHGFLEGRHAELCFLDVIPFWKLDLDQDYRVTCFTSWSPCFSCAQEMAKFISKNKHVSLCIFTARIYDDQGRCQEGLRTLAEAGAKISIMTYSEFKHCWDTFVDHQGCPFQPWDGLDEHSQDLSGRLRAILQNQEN
Sequence of Large T antigen (P03070 whole entry): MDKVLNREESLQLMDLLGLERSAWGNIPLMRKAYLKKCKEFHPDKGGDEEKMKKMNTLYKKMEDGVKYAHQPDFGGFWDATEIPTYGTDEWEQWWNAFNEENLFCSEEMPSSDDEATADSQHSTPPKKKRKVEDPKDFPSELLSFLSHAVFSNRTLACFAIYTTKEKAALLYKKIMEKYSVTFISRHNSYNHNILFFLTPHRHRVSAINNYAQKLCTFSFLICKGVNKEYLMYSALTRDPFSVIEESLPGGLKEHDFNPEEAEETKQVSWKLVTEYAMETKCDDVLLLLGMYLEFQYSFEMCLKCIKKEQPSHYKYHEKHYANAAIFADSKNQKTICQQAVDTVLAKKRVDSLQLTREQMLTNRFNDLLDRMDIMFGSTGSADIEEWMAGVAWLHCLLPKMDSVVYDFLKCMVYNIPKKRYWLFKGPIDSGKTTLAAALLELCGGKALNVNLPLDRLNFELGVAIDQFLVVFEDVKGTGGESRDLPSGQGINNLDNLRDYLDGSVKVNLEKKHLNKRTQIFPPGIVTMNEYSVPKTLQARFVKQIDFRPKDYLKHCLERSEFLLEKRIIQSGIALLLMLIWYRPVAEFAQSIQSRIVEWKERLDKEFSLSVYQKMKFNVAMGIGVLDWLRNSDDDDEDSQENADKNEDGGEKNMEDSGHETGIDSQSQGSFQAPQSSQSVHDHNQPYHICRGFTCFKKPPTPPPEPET
Sequence of Induced myeloid leukemia cell differentiation protein Mcl-1 (Q07820 whole entry): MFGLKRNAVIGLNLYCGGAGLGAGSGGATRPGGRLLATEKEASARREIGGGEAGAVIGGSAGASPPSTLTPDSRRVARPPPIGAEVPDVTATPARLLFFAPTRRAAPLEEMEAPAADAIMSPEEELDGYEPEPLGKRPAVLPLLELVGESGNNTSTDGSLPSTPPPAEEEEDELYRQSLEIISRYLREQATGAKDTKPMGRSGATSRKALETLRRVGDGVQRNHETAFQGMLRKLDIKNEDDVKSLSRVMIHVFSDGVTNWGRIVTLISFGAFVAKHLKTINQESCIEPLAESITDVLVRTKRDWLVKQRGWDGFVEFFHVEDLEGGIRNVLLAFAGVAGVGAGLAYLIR
Sequence of Genome polyprotein (P29990 2492-3391 limits assumed): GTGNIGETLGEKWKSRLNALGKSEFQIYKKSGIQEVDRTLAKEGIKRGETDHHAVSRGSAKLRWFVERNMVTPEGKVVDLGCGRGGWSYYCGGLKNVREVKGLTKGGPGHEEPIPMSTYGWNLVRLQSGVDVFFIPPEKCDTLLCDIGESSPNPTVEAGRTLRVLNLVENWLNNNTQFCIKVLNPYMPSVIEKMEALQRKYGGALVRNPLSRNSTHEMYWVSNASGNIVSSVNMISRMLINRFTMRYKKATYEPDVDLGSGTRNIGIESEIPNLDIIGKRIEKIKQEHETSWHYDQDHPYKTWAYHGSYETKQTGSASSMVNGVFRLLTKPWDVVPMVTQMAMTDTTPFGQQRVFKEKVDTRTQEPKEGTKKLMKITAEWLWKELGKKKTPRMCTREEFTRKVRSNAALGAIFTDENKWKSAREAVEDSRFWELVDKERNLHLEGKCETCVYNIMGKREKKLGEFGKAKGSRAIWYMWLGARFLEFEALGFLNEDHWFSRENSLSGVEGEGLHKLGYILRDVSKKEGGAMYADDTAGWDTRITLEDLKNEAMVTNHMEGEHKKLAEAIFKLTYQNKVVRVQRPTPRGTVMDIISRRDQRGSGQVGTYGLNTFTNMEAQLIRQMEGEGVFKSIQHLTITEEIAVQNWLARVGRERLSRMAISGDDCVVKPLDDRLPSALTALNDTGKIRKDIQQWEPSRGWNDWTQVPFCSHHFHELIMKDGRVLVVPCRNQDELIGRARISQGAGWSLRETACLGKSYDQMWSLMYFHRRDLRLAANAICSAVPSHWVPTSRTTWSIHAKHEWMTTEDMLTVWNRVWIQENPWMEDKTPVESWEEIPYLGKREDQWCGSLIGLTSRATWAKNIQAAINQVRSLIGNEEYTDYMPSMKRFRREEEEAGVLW

For `O=C(NC(=S)Nc1ccccc1O)c1ccc(Cl)cc1Cl`, the EC50 was > 160 µM (inconclusive) in assay [1] and 0.636 µM (active) in assay [2]. Moreover, at Beta-galactosidase, the IC50 was > 66.6 µM (inactive).

As to `Cc1cccc(N2C(=O)NC(=O)/C(=C\c3cc(C)n(-c4sc5c(c4C#N)CCCC5)c3C)C2=O)c1C`, on Hexokinase HKDC1, the IC50 was 17.1 µM (active).

Take `O=C(Nc1nc(-c2ccccc2)c(-c2ccccc2)o1)c1ccc(F)cc1`: in [3], the AC50 is 7.59 µM (active). The EC50 is 1.77 µM (active) in the assay on Streptococcus and 0.894 µM (active) in assay [4]. The IC50 on Beta-galactosidase is > 66.6 µM (inactive).

With `Cc1ccccc1C(=O)Nc1nnc(CC(=O)N/N=C/c2cn(Cc3ccccc3)c3ccccc23)s1`, the IC50 on SUMO-activating enzyme [5] was 16.8 µM (active); on SUMO-activating enzyme [6], 24.7 µM (active).

As to `CC(C)c1ccc(S(=O)(=O)/N=C2/C=C(Sc3nc[nH]n3)C(=O)c3ccccc32)cc1`, in the assay with Vero, the CC50 was 22.2 µM (active). The IC50 is 6.89 µM (active) on Genome polyprotein, 1.35 µM (active) in assay [7] and 2.88 µM (active) on Hexokinase HKDC1.

`Sc1nnc(NCCCN2CCOCC2)s1`: the values for the IC50 (in [8]; at Large T antigen) were 22.4 µM (active) and 22.6 µM (active), respectively.

The values above are taken from ChEMBL document CHEMBL1201862, “PubChem BioAssay data set” (2004).
